{"source": "patent US20100093725A1", "about": "“SEMI-SOLID FORMULATIONS OF PHOSPHOLIPASE ENZYME INHIBITORS” (Wyeth, priority 2006, published 2010)", "key": {"[1]": {"experiment": "Solubility at room temperature in water, acid and basic conditions", "format": "physicochemical", "details": "aqueous solution under acid conditions (free acid form), aqueous buffer, HPLC detection limit, read-out: intrinsic solubility of the free acid", "procedure": "The solubility of 4-(3-{5-chloro-1-(diphenylmethyl)-2-[2-({[2-(trifluoromethyl)benzyl]sulfonyl}amino)ethyl]-1H-indol-3-yl}propyl)benzoic acid was measured at room temperature in water, acid and basic conditions."}, "[2]": {"system": "carrageenan-induced paw edema", "experiment": "Rat carrageenan-induced paw edema (CPE) study", "format": "in vivo", "procedure": "Data from a rat carrageenan-induced paw edema (CPE) study indicated the minimum efficacious exposure of 4-(3-{5-chloro-1-(diphenylmethyl)-2-[2-({[2-(trifluoromethyl)benzyl]sulfonyl}amino) ethyl]-1H-indol-3-yl}propyl)benzoic acid was 1360 ng*hr/ml."}}}
{"smiles": "O=C(O)c1ccc(CCCc2c(CCNS(=O)(=O)Cc3ccccc3C(F)(F)F)n(C(c3ccccc3)c3ccccc3)c3ccc(Cl)cc23)cc1", "note": "[4-(3-{5-chloro-1-(diphenylmethyl)-2-[2-({[2-(trifluoromethyl)benzyl]sulfonyl}amino)ethyl]-1H-indol-3-yl}propyl)benzoic acid]", "values": [{"measurement": "solubility", "setting": "[1]", "result": "< 0.031", "unit": "µg/mL"}, {"measurement": "minimum efficacious exposure", "setting": "[2]", "result": 1360, "unit": "ng·h/mL"}]}
